Consider 5 compounds from publication PMC3740800, “Lanostane- and cycloartane-type triterpenoids from Abies balsamea oleoresin” (Beilstein Journal of Organic Chemistry, 2013).

Holding throughout (type): cell-based
One assay relates to S. aureus (ATCC 25923). Description: antibacterial microdilution assay, S. aureus. To be noted: for MIC: Staphylococcus aureus, ATCC25923, 6 h at 37 °C, read-out: MIC against S. aureus. As to the method:
(§1) The isolates were evaluated in vitro for their cytotoxic activities against two human cancer cell lines, namely lung carcinoma (A549) and colon adenocarcinoma (DLD-1), as well as against one healthy cell line (WS1) using the resazurin reduction test. Etoposide was used as a positive control (IC50 ≤ 1.0 µM). […] The antibacterial activity of isolated compounds was also evaluated in vitro against E. coli and S. aureus using the microdilution assay with gentamycin as a positive control (MIC < 0.1 µg/mL).
(§2) Antibacterial activity was evaluated using the microdilution method with some modifications. Briefly,
(§3) exponentially growing bacteria were plated in 96-well flat-bottom microplates (BD Falcon) at a density of
(§4) 5 × 103 Gram-negative E. coli (ATCC 25922) or 40 × 103 Gram-positive S. aureus (ATCC 25923) per
(§5) well in 100 μL nutrient broth (Difco). Increasing concentrations of compounds in DMSO (Sigma-Aldrich)
(§6) were then added (100 μL per well). The final concentration of DMSO in the culture medium was
(§7) maintained at 0.25% (v/v) to avoid solvent toxicity. Fifty microliters of 4% resazurin was added to each
(§8) well and the microplates were incubated for 6 h at 37 °C. Absorbance was measured after 6 h on an
(§9) automated 96-well Varioskan plate reader (Thermo-Labsystems) at wavelengths of 600 nm and 660 nm
(§10) for E. coli and S. aureus respectively.
Background: Broth dilution looks for growth in wells or tubes with falling amounts of substance.

Another assay concerns E. coli (ATCC 25922). Description: antibacterial microdilution assay, E. coli. To be noted: 6 h at 37 °C. As to the method:
as §1, §2, §3, §4, §5, §6, §7, §8, §9, §10

A further assay relates to lung carcinoma (A549). Description: cytotoxicity, resazurin reduction test, A549. To be noted: Homo sapiens, 48 h incubation, read-out: IC50 (concentration inhibiting 50% of cell growth), A549. As to the method:
as §1
(§11) 23-Oxo-3,4-seco-9βH-lanosta-4(28),7-diene-3,26-dioic acid (9): white amorphous solid; [α]22 −26.9° (c
(§12) Cytotoxic activity bioassay
(§13) Lung carcinoma (A549), colon adenocarcinoma (DLD-1) and normal skin fibroblast (WS1) human cell
(§14) lines were purchased from the American Type Culture Collection (ATCC). All cell lines were cultured in […]
(§15) solvent toxicity. Cytotoxicity was assessed using resazurin reduction test on an automated 96-well
(§16) Fluoroskan Ascent F1TM plate reader (Labsystems) using excitation and emission wavelengths of 530 nm
(§17) and 590 nm, respectively. Fluorescence was proportional to the cellular metabolic activity in each well.
(§18) Survival percentages were defined as the fluorescence in experimental wells compared to that in control
(§19) wells after subtraction of blank values. Cytotoxicity results were expressed as mean ± standard deviation […]

The test system of assay [1] is colon adenocarcinoma (DLD-1). The experiment in a line: cytotoxicity, resazurin reduction test, DLD-1. To be noted: Homo sapiens, 48 h incubation, read-out: IC50 (concentration inhibiting 50% of cell growth), DLD-1. On the procedure: as §1, §11, §12, §13, §14, §15, §16, §17, §18, §19
The test system of assay [2] is normal skin fibroblast (WS1). Description: cytotoxicity, resazurin reduction test, WS1. To be noted: Homo sapiens, WS1 healthy cell line, 48 h incubation, read-out: IC50 (concentration inhibiting 50% of cell growth), WS1. On the procedure:
as §1, §11, §12, §13, §14, §15, §16, §17, §18, §19
For orientation: Resazurin is reduced to fluorescent resorufin, in cell work by metabolically active cells.

Values after ≈ are worked out from the molar mass of the structure shown.

For the compound gentamycin, the “MIC against S. aureus (positive control)” value against S. aureus (ATCC 25923) (6 h at 37 °C) is less than 0.1 µg/mL. For the same compound, in the assay on E. coli (ATCC 25922), the “MIC against E. coli (positive control)” value is on record as less than 0.1 µg/mL.
For `C=C(C)C1CC=C2C(CCC23C(=C)CCC3(C)C(C)CC(=O)C=C(C)C(=O)O)C1(C)CCC(=O)O` (centres unmarked) [Compound 6, abiesonic acid], in the assay with lung carcinoma (A549), the IC50 amounted to 22000 nM.
As for `C=C(C)C1CC=C2C(CCC23C(=C)CCC3(C)C(C)CC(=O)C=C(C)C(=O)O)C1(C)CCC(=O)OC` (single isomer, unassigned; (-)) [Compound 1, (−)-rel-abiesonic acid 3-methyl ester], the MIC with S. aureus (ATCC 25923) stood at 25 µM (≈ 12.4 µg/mL).
As for `COc1cc([C@@H]2c3cc4c(cc3[C@@H](O[C@@H]3O[C@@H]5CO[C@@H](C)O[C@H]5[C@H](O)[C@H]3O)[C@H]3COC(=O)[C@H]23)OCO4)cc(OC)c1O` [Etoposide], the IC50 (in assay [1]; in the assay with lung carcinoma (A549); in assay [2]) was no more than 1000 nM each time.
Regarding `C=C(CC(=O)CC(C)C1CCC2(C)C3CCC4C(C)(C)C(O)CCC45CC35CCC12C)C(=O)O` (single isomer, unassigned; (+)) [Compound 4, (+)-rel-3α-hydroxy-23-oxocycloart-25(27)-en-26-oic acid], the minimal inhibitory concentration (MIC) in the assay on S. aureus (ATCC 25923) came out at 25 µM (≈ 11.8 µg/mL).

In general, MIC refers to the least concentration at which growth counts as inhibited.
